Measured values taken from patent US9707305B2, “Formulas for diagnosing and treating hormone-dependent cancers and cancers of the organs responsible for steroid hormone synthesis” (Commissariat à l'énergie atomique et aux énergies …, priority 2011, dated 2017).

Test: Biodistribution of the nano-emulsion of Example 1.1 (radioactivity and fluorescence per organ)
Format: in vivo
Description: In the following examples, the radioactivity was counted with the TRiCarb Counter (Ref: Packard, Liquid Scintillation Analyzers; Models 2200CA).
Fluobeam 700 (Fluoptics) is the apparatus with which the whole of the organs from the biodistribution were analyzed in fluorescence as well as the one with which the biodistribution kinetics of the nano-emulsions were established in vivo. This imaging system allows viewing of the fluorescence in spectral bands from 700 to 850 nm for a 650 nm excitation. The apparatus consists of an electric case containing the laser of class 3B, its power supply and an optical head containing the CCD camera.
The nano-emulsions of Example 1 were injected into FVB female and male mice. As a comparison, a mixture of three tracers ([3H]CHE, [14C]CO and DiD) (not formulated as a nano-emulsion) was injected in order to observe the distribution of the tracers in the absence of droplets being used as a distribution carrier.
Tables 6 to 14 provide the biodistribution results of each tracer ([3H]CHE, [14C]CO and DiD) expressed as a percentage of the dose injected per gram of tissue (or [3H]CHE and [14C]CO) or as fluorescence intensity (for DiD) depending on the organ of the mouse, 15 minutes (Table 6), 2 hours (Table 7), 4 hours (Table 8), 6 hours (Table 9), 16 hours (Table 10), 24 hours (Table 11), 72 hours (Table 12), 120 hours (Table 13) and 168 hours (Table 14), after injection into an FVB female mouse of the nano-emulsion of Example 1.1. (nano-emulsion according to the invention comprising the three tracers ([3H]CHE, [14C]CO and DiD).

[1] = 15 min after injection of nano-emulsion of Example 1.1, FVB female mouse
[2] = 2 h after injection of nano-emulsion of Example 1.1, FVB female mouse
[3] = 4 h after injection of nano-emulsion of Example 1.1, FVB female mouse
[4] = 16 h (Table 9 head) after injection of nano-emulsion of Example 1.1, FVB female mouse
[5] = 24 h (Table 10 head) after injection of nano-emulsion of Example 1.1, FVB female mouse
[6] = 48 h (Table 11 head) after injection of nano-emulsion of Example 1.1, FVB female mouse
[7] = 72 h after injection of nano-emulsion of Example 1.1, FVB female mouse
[8] = 120 h after injection of nano-emulsion of Example 1.1, FVB female mouse
[9] = 168 h after injection of nano-emulsion of Example 1.1, FVB female mouse

With `CCCCCCCCCCCCCCCCCCN1/C(=C/C=C/C=C/C2=[N+](CCCCCCCCCCCCCCCCCC)c3ccccc3C2(C)C)C(C)(C)c2ccccc21.[O-][Cl+3]([O-])([O-])[O-]` [DiD, l,r-dioctadécyl-3,3,3′,3′-tetramethylindodicarbocyanine (DiD) perchlorate] the “fluorescence intensity, Adrenal glands (MEAN)” value [1] was 457 photons per pixel, reduced to, the “fluorescence intensity, Brain (MEAN)” value [1] was 145 photons per pixel, reduced to and the “fluorescence intensity, Fat (MEAN)” value [1] was 147 photons per pixel, reduced to. For the same compound, the “fluorescence intensity, Heart (MEAN)” value [1] was 451 photons per pixel, reduced to, the “fluorescence intensity, Intestine (MEAN)” value [1] was 300 photons per pixel, reduced to and the “fluorescence intensity, Kidney (MEAN)” value [1] was 228 photons per pixel, reduced to. For the same compound, the “fluorescence intensity, Liver (MEAN)” value [1] was 979 photons per pixel, reduced to, the “fluorescence intensity, Lung (MEAN)” value [1] was 618 photons per pixel, reduced to and the “fluorescence intensity, Muscle (MEAN)” value [1] was 1 photons per pixel, reduced to. For the same compound, the “fluorescence intensity, Ovary (MEAN)” value [1] was 484 photons per pixel, reduced to, the “fluorescence intensity, Pancreas (MEAN)” value [1] was 216 photons per pixel, reduced to and the “fluorescence intensity, Salivary glands (MEAN)” value [1] was 59 photons per pixel, reduced to. The “fluorescence intensity, Spleen (MEAN)” value [1] was 727 photons per pixel, reduced to, the “fluorescence intensity, Uterus (MEAN)” value [1] was 178 photons per pixel, reduced to and the “fluorescence intensity, Adrenal glands (MEAN)” value [2] was 1050 photons per pixel, reduced to. For the same compound, the “fluorescence intensity, Brain (MEAN)” value [2] was 250 photons per pixel, reduced to, the “fluorescence intensity, Fat (MEAN)” value [2] was 247 photons per pixel, reduced to and the “fluorescence intensity, Heart (MEAN)” value [2] was 389 photons per pixel, reduced to. For the same compound, the “fluorescence intensity, Intestine (MEAN)” value [2] was 637 photons per pixel, reduced to, the “fluorescence intensity, Kidneys (MEAN)” value [2] was 473 photons per pixel, reduced to and the “fluorescence intensity, Liver (MEAN)” value [2] was 1421 photons per pixel, reduced to. The “fluorescence intensity, Lung (MEAN)” value [2] was 727 photons per pixel, reduced to, the “fluorescence intensity, Muscle (MEAN)” value [2] was 213 photons per pixel, reduced to and the “fluorescence intensity, Ovary (MEAN)” value [2] was 1807 photons per pixel, reduced to. For the same compound, the “fluorescence intensity, Pancreas (MEAN)” value [2] was 399 photons per pixel, reduced to, the “fluorescence intensity, Salivary glands (MEAN)” value [2] was 288 photons per pixel, reduced to and the “fluorescence intensity, Spleen (MEAN)” value [2] was 805 photons per pixel, reduced to. The “fluorescence intensity, Uterus (MEAN)” value [2] was 814 photons per pixel, reduced to, the “fluorescence intensity, Adrenal glands (MEAN)” value [3] was 1754 photons per pixel, reduced to and the “fluorescence intensity, Brain (MEAN)” value [3] was 279 photons per pixel, reduced to. The “fluorescence intensity, Fat (MEAN)” value [3] was 522 photons per pixel, reduced to, the “fluorescence intensity, Heart (MEAN)” value [3] was 550 photons per pixel, reduced to and the “fluorescence intensity, Intestine (MEAN)” value [3] was 974 photons per pixel, reduced to. For the same compound, the “fluorescence intensity, Kidney (MEAN)” value [3] was 614 photons per pixel, reduced to, the “fluorescence intensity, Liver (MEAN)” value [3] was 1845 photons per pixel, reduced to and the “fluorescence intensity, Lungs (MEAN)” value [3] was 925 photons per pixel, reduced to. The “fluorescence intensity, Muscle (MEAN)” value [3] was 236 photons per pixel, reduced to, the “fluorescence intensity, Ovary (MEAN)” value [3] was 2781 photons per pixel, reduced to and the “fluorescence intensity, Pancreas (MEAN)” value [3] was 527 photons per pixel, reduced to. The “fluorescence intensity, Salivary glands (MEAN)” value [3] was 516 photons per pixel, reduced to, the “fluorescence intensity, Spleen (MEAN)” value [3] was 955 photons per pixel, reduced to and the “fluorescence intensity, Uterus (MEAN)” value [3] was 712 photons per pixel, reduced to. The “fluorescence intensity, Adrenal glands (MEAN)” value [4] was 2355 photons per pixel, reduced to, the “fluorescence intensity, Brain (MEAN)” value [4] was 259 photons per pixel, reduced to and the “fluorescence intensity, Fat (MEAN)” value [4] was 532 photons per pixel, reduced to. For the same compound, the “fluorescence intensity, Heart (MEAN)” value [4] was 444 photons per pixel, reduced to, the “fluorescence intensity, Intestine (MEAN)” value [4] was 1139 photons per pixel, reduced to and the “fluorescence intensity, Kidney (MEAN)” value [4] was 627 photons per pixel, reduced to. For the same compound, the “fluorescence intensity, Liver (MEAN)” value [4] was 1661 photons per pixel, reduced to, the “fluorescence intensity, Lungs (MEAN)” value [4] was 592 photons per pixel, reduced to and the “fluorescence intensity, Muscle (MEAN)” value [4] was 289 photons per pixel, reduced to. The “fluorescence intensity, Ovary (MEAN)” value [4] was 2915 photons per pixel, reduced to, the “fluorescence intensity, Pancreas (MEAN)” value [4] was 564 photons per pixel, reduced to and the “fluorescence intensity, Salivary glands (MEAN)” value [4] was 641 photons per pixel, reduced to. For the same compound, the “fluorescence intensity, Spleen (MEAN)” value [4] was 978 photons per pixel, reduced to, the “fluorescence intensity, Uterus (MEAN)” value [4] was 1759 photons per pixel, reduced to and the “fluorescence intensity, Adrenal glands (MEAN)” value [5] was 2624 photons per pixel, reduced to. The “fluorescence intensity, Brain (MEAN)” value [5] was 239 photons per pixel, reduced to, the “fluorescence intensity, Fat (MEAN)” value [5] was 553 photons per pixel, reduced to and the “fluorescence intensity, Heart (MEAN)” value [5] was 288 photons per pixel, reduced to. The “fluorescence intensity, Intestine (MEAN)” value [5] was 777 photons per pixel, reduced to, the “fluorescence intensity, Kidney (MEAN)” value [5] was 599 photons per pixel, reduced to and the “fluorescence intensity, Liver (MEAN)” value [5] was 1675 photons per pixel, reduced to. For the same compound, the “fluorescence intensity, Lung (MEAN)” value [5] was 667 photons per pixel, reduced to, the “fluorescence intensity, Muscle (MEAN)” value [5] was 161 photons per pixel, reduced to and the “fluorescence intensity, Ovary (MEAN)” value [5] was 3173 photons per pixel, reduced to. For the same compound, the “fluorescence intensity, Pancreas (MEAN)” value [5] was 446 photons per pixel, reduced to, the “fluorescence intensity, Salivary glands (MEAN)” value [5] was 411 photons per pixel, reduced to and the “fluorescence intensity, Spleen (MEAN)” value [5] was 774 photons per pixel, reduced to. The “fluorescence intensity, Uterus (MEAN)” value [5] was 971 photons per pixel, reduced to, the “fluorescence intensity, Adrenal glands (MEAN)” value [6] was 1484 photons per pixel, reduced to and the “fluorescence intensity, Brain (MEAN)” value [6] was 51 photons per pixel, reduced to. For the same compound, the “fluorescence intensity, Fat (MEAN)” value [6] was 208 photons per pixel, reduced to, the “fluorescence intensity, Heart (MEAN)” value [6] was 122 photons per pixel, reduced to and the “fluorescence intensity, Intestine (MEAN)” value [6] was 481 photons per pixel, reduced to. For the same compound, the “fluorescence intensity, Kidney (MEAN)” value [6] was 555 photons per pixel, reduced to, the “fluorescence intensity, Liver (MEAN)” value [6] was 1868 photons per pixel, reduced to and the “fluorescence intensity, Lungs (MEAN)” value [6] was 212 photons per pixel, reduced to. For the same compound, the “fluorescence intensity, Muscle (MEAN)” value [6] was 32 photons per pixel, reduced to, the “fluorescence intensity, Ovary (MEAN)” value [6] was 4018 photons per pixel, reduced to and the “fluorescence intensity, Pancreas (MEAN)” value [6] was 202 photons per pixel, reduced to. For the same compound, the “fluorescence intensity, Salivary glands (MEAN)” value [6] was 268 photons per pixel, reduced to, the “fluorescence intensity, Spleen (MEAN)” value [6] was 342 photons per pixel, reduced to and the “fluorescence intensity, Uterus (MEAN)” value [6] was 951 photons per pixel, reduced to. For the same compound, the “fluorescence intensity, Adrenal glands (MEAN)” value [7] was 1135 photons per pixel, reduced to, the “fluorescence intensity, Brain (MEAN)” value [7] was 43 photons per pixel, reduced to and the “fluorescence intensity, Fat (MEAN)” value [7] was 159 photons per pixel, reduced to. The “fluorescence intensity, Heart (MEAN)” value [7] was 113 photons per pixel, reduced to, the “fluorescence intensity, Intestine (MEAN)” value [7] was 297 photons per pixel, reduced to and the “fluorescence intensity, Kidney (MEAN)” value [7] was 365 photons per pixel, reduced to. The “fluorescence intensity, Liver (MEAN)” value [7] was 1136 photons per pixel, reduced to, the “fluorescence intensity, Lungs (MEAN)” value [7] was 120 photons per pixel, reduced to and the “fluorescence intensity, Muscle (MEAN)” value [7] was 3 photons per pixel, reduced to. The “fluorescence intensity, Ovary (MEAN)” value [7] was 2397 photons per pixel, reduced to, the “fluorescence intensity, Pancreas (MEAN)” value [7] was 102 photons per pixel, reduced to and the “fluorescence intensity, Salivary glands (MEAN)” value [7] was 237 photons per pixel, reduced to. For the same compound, the “fluorescence intensity, Spleen (MEAN)” value [7] was 330 photons per pixel, reduced to, the “fluorescence intensity, Uterus (MEAN)” value [7] was 514 photons per pixel, reduced to and the “fluorescence intensity, Adrenal gland (MEAN)” value [8] was 1688 photons per pixel, reduced to. For the same compound, the “fluorescence intensity, Brain (MEAN)” value [8] was 90 photons per pixel, reduced to, the “fluorescence intensity, Fat (MEAN)” value [8] was 176 photons per pixel, reduced to and the “fluorescence intensity, Heart (MEAN)” value [8] was 80 photons per pixel, reduced to. For the same compound, the “fluorescence intensity, Intestine (MEAN)” value [8] was 279 photons per pixel, reduced to, the “fluorescence intensity, Kidney (MEAN)” value [8] was 383 photons per pixel, reduced to and the “fluorescence intensity, Liver (MEAN)” value [8] was 996 photons per pixel, reduced to. The “fluorescence intensity, Lungs (MEAN)” value [8] was 53 photons per pixel, reduced to, the “fluorescence intensity, Muscle (MEAN)” value [8] was 254 photons per pixel, reduced to and the “fluorescence intensity, Ovary (MEAN)” value [8] was 2319 photons per pixel, reduced to. For the same compound, the “fluorescence intensity, Pancreas (MEAN)” value [8] was 297 photons per pixel, reduced to, the “fluorescence intensity, Salivary glands (MEAN)” value [8] was 120 photons per pixel, reduced to and the “fluorescence intensity, Spleen (MEAN)” value [8] was 229 photons per pixel, reduced to. The “fluorescence intensity, Uterus (MEAN)” value [8] was 563 photons per pixel, reduced to, the “fluorescence intensity, Adrenal glands (MEAN)” value [9] was 660.62 photons per pixel, reduced to and the “fluorescence intensity, Brain (MEAN)” value [9] was 40.28 photons per pixel, reduced to. For the same compound, the “fluorescence intensity, Fat (MEAN)” value [9] was 164.55 photons per pixel, reduced to, the “fluorescence intensity, Heart (MEAN)” value [9] was 117.29 photons per pixel, reduced to and the “fluorescence intensity, Intestine (MEAN)” value [9] was 214.02 photons per pixel, reduced to. The “fluorescence intensity, Kidneys (MEAN)” value [9] was 391.45 photons per pixel, reduced to, the “fluorescence intensity, Liver (MEAN)” value [9] was 676.60 photons per pixel, reduced to and the “fluorescence intensity, Lungs (MEAN)” value [9] was 1.35 photons per pixel, reduced to. The “fluorescence intensity, Muscle (MEAN)” value [9] was 16.21 photons per pixel, reduced to, the “fluorescence intensity, Ovary (MEAN)” value [9] was 1614.45 photons per pixel, reduced to and the “fluorescence intensity, Pancreas (MEAN)” value [9] was 125.11 photons per pixel, reduced to. The “fluorescence intensity, Salivary glands (MEAN)” value [9] was 216.84 photons per pixel, reduced to, the “fluorescence intensity, Spleen (MEAN)” value [9] was 171.93 photons per pixel, reduced to and the “fluorescence intensity, Uterus (MEAN)” value [9] was 697.92 photons per pixel, reduced to.
